Measured values from US9265253B2, “Use of macrocyclic picolinamides as fungicides” (DOW AGROSCIENCES LLC, priority 2013, dated 2016).
Where two headings read alike, the source gives them in different places.

What was measured:
Format in all cases: in vivo
[1] = test system: Uncinula necator; assay: Grape Powdery Mildew (UNCINE) disease control; conditions: Erysiphe necator, topical, 24 h, 1 Day Protectant, read-out: Disease Control UNCINE 1 DP
Description: Technical grades of materials were dissolved in acetone, which were then mixed with nine volumes of water containing 110 ppm Triton X-100. The fungicide solutions were applied onto wheat seedlings using an automated booth sprayer to run-off. All sprayed plants were allowed to air dry prior to further handling. All fungicides were evaluated using the aforementioned method for their activity vs. all target diseases. Wheat leaf blotch and brown rust activity were also evaluated using track spray applications, in which case the fungicides were formulated as EC formulations, containing 0.1% Trycol 5941 in the spray solutions. Wheat plants (variety Yuma) were grown from seed in a greenhouse in 50% mineral soil/50% soil-less Metro mix until the first leaf was fully emerged, with 7-10 seedlings per pot. These plants were inoculated with an aqueous spore suspension of Septoria tritici either prior to or after fungicide treatments. After inoculation the plants were kept in 100% relative humidity (one day in a dark dew chamber followed by two to three days in a lighted dew chamber at 20° C.) to permit spores to germinate and infect the leaf. The plants were then transferred to a greenhouse set at 20° C. for disease to develop. When disease symptoms were fully expressed on the 1st leaves of untreated plants, infection levels were assessed on a scale of 0 to 100 percent disease severity. Percent disease control was calculated using the ratio of disease severity on treated plants relative to untreated plants. Grape seedlings (variety Carignane) were grown in soil-less Metro mix, with one plant per pot, and used in the test when approximately one month old. Plants were inoculated 24 hr after fungicide treatment by shaking spores from infected leaves over test plants. Plants were maintained in a greenhouse set at 20° C. until disease was fully developed. Fungicide formulation, application and disease assessment on the sprayed leaves followed the procedures as described in the Example A.

[2] = test system: Cercospora beticola; assay: Leaf Spot of Sugar Beets (CERCBE) disease control; conditions: Cercospora beticola, topical, 24 h, 1 Day Protectant, sugar beet, read-out: Disease Control CERCBE 1 DP
Description: Technical grades of materials were dissolved in acetone, which were then mixed with nine volumes of water containing 110 ppm Triton X-100. The fungicide solutions were applied onto wheat seedlings using an automated booth sprayer to run-off. All sprayed plants were allowed to air dry prior to further handling. All fungicides were evaluated using the aforementioned method for their activity vs. all target diseases. Wheat leaf blotch and brown rust activity were also evaluated using track spray applications, in which case the fungicides were formulated as EC formulations, containing 0.1% Trycol 5941 in the spray solutions. Wheat plants (variety Yuma) were grown from seed in a greenhouse in 50% mineral soil/50% soil-less Metro mix until the first leaf was fully emerged, with 7-10 seedlings per pot. These plants were inoculated with an aqueous spore suspension of Septoria tritici either prior to or after fungicide treatments. After inoculation the plants were kept in 100% relative humidity (one day in a dark dew chamber followed by two to three days in a lighted dew chamber at 20° C.) to permit spores to germinate and infect the leaf. The plants were then transferred to a greenhouse set at 20° C. for disease to develop. When disease symptoms were fully expressed on the 1st leaves of untreated plants, infection levels were assessed on a scale of 0 to 100 percent disease severity. Percent disease control was calculated using the ratio of disease severity on treated plants relative to untreated plants. Sugar beet plants (variety HH88) were grown in soil-less Metro mix and trimmed regularly to maintain a uniform plant size prior to test. Plants were inoculated with a spore suspension 24 hr after fungicide treatments. Inoculated plants were kept in a dew chamber at 22° C. for 48 hr then incubated in a greenhouse set at 24° C. under a clear plastic hood with bottom ventilation until disease symptoms were fully expressed. Fungicide formulation, application and disease assessment on the sprayed leaves followed the procedures as described in the Example A.

[3] = test system: Phakopsora pachyrhizi; assay: Asian Soybean Rust (PHAKPA) disease control; conditions: Phakopsora pachyrhizi, topical
Description: Technical grades of materials were dissolved in acetone, which were then mixed with nine volumes of water containing 0.011% Tween 20. The fungicide solutions were applied onto soybean seedlings using an automated booth sprayer to run-off. All sprayed plants were allowed to air dry prior to further handling.
Soybean plants (variety Williams 82) were grown in soil-less Metro mix, with one plant per pot. Two weeks old seedlings were used for testing. Plants were inoculated either 3 days prior to or 1 day after fungicide treatments. Plants were incubated for 24 h in a dark dew room at 22° C. and 100% RH then transferred to a growth room at 23° C. for disease to develop. Disease severity was assessed on the sprayed leaves.

[4] = test system: Magnaporthe grisea; Anamorph: Pyricularia oryzae; assay: whole plant or invertebrate; conditions: Pyricularia oryzae, topical, 24 h, read-out: Disease Control PYRIOR 1 DP
[5] = test system: Glomerella lagenarium; Anamorph: Colletotrichum lagenarium; assay: Cucumber Anthracnose (COLLLA) disease control; conditions: Colletotrichum orbiculare, topical, 24 h, 1 Day Protectant, read-out: Disease Control COLLLA 1 DP
Description: Technical grades of materials were dissolved in acetone, which were then mixed with nine volumes of water containing 110 ppm Triton X-100. The fungicide solutions were applied onto wheat seedlings using an automated booth sprayer to run-off. All sprayed plants were allowed to air dry prior to further handling. All fungicides were evaluated using the aforementioned method for their activity vs. all target diseases. Wheat leaf blotch and brown rust activity were also evaluated using track spray applications, in which case the fungicides were formulated as EC formulations, containing 0.1% Trycol 5941 in the spray solutions. Wheat plants (variety Yuma) were grown from seed in a greenhouse in 50% mineral soil/50% soil-less Metro mix until the first leaf was fully emerged, with 7-10 seedlings per pot. These plants were inoculated with an aqueous spore suspension of Septoria tritici either prior to or after fungicide treatments. After inoculation the plants were kept in 100% relative humidity (one day in a dark dew chamber followed by two to three days in a lighted dew chamber at 20° C.) to permit spores to germinate and infect the leaf. The plants were then transferred to a greenhouse set at 20° C. for disease to develop. When disease symptoms were fully expressed on the 1st leaves of untreated plants, infection levels were assessed on a scale of 0 to 100 percent disease severity. Percent disease control was calculated using the ratio of disease severity on treated plants relative to untreated plants. Cucumber seedlings (variety Bush Pickle) were propagated in soil-less Metro mix, with each pot having one plant, and used in the test when 12 to 14 days old. Test plants were inoculated with an aqueous spore suspension of Colletotrichum lagenarium 24 hr after fungicide treatments. After inoculation the plants were kept in a dew room at 22° C. with 100% relative humidity for 48 hr to permit spores to germinate and infect the leaf. The plants were then transferred to a growth room set at 22° C. for disease to develop. Fungicide formulation, application and disease assessment on the sprayed leaves followed the procedures as described in the Example A.

[6] = 24 h, 1 Day Protectant, read-out: Disease Control PHAKPA 1DP
[7] = 72 h, 3 Day Curative, read-out: Disease Control PHAKPA 3DC

COc1ccnc(C(=O)N[C@H]2CCC[C@H](CCF)[C@@H](OCC(C)C)[C@H](C)OC2=O)c1OCOC(C)=O [Compound F128, ((2-(((3S,7R,8R,9S)-7-(2-fluoroethyl)-8-isobutoxy-9-methyl-2-oxooxonan-3-yl)carbamoyl)-4-methoxypyridin-3-yl)oxy)methyl acetate]
pest or weed control at 100 ppm [1]: 80 to 100%
pest or weed control at 100 ppm [2]: 80 to 100%
pest or weed control at 25 ppm [3, 6]: 80 to 100%
pest or weed control at 25 ppm [3, 7]: 80 to 100%
pest or weed control at 100 ppm [4]: 80 to 100%
pest or weed control at 100 ppm [5]: 80 to 100%

COc1ccc(C[C@H]2CCC[C@H](NC(=O)c3nccc(OC)c3OCOC(C)=O)C(=O)O[C@@H](C)[C@@H]2Oc2ccccc2)cc1 [Compound F114]
pest or weed control at 100 ppm [2]: 80 to 100%
pest or weed control at 100 ppm [4]: 80 to 100%
pest or weed control at 100 ppm [5]: 80 to 100%

COc1ccnc(C(=O)N[C@H]2CCC[C@H](Cc3ccccc3)[C@@H](OC3CCCC3)[C@H](C)OC2=O)c1OCOC(C)=O [Compound F110]
pest or weed control at 100 ppm [1]: 80 to 100%
pest or weed control at 100 ppm [4]: 80 to 100%

CCCO[C@@H]1[C@@H](Cc2ccc(OC)cc2)CCC[C@H](NC(=O)c2nccc(OC)c2OCOC(C)=O)C(=O)O[C@H]1C [Compound F119]
pest or weed control at 100 ppm [2]: 80 to 100%
pest or weed control at 25 ppm [3, 6]: 80 to 100%
pest or weed control at 25 ppm [3, 7]: 0 to 80%
pest or weed control at 100 ppm [4]: 80 to 100%
pest or weed control at 100 ppm [5]: 80 to 100%

COc1ccnc(C(=O)N[C@H]2CCC[C@H](CC3CCCCC3)[C@@H](OCC(C)C)[C@H](C)OC2=O)c1OCOC(C)=O [Compound F113]
pest or weed control at 100 ppm [1]: 0 to 80%
pest or weed control at 100 ppm [2]: 80 to 100%
pest or weed control at 25 ppm [3, 6]: 80 to 100%
pest or weed control at 25 ppm [3, 7]: 0 to 80%
pest or weed control at 100 ppm [4]: 80 to 100%

COc1ccc(C[C@H]2CCC[C@H](NC(=O)c3nccc(OC)c3OCOC(C)=O)C(=O)O[C@@H](C)[C@@H]2OCC(C)C)cc1 [Compound F118]
pest or weed control at 100 ppm [2]: 80 to 100%
pest or weed control at 25 ppm [3, 6]: 80 to 100%
pest or weed control at 25 ppm [3, 7]: 0 to 80%
pest or weed control at 100 ppm [4]: 80 to 100%
pest or weed control at 100 ppm [5]: 80 to 100%

COc1ccnc(C(=O)N[C@H]2CCC[C@H](Cc3ccc(C)cc3)[C@@H](OCC(C)C)[C@H](C)OC2=O)c1OCOC(C)=O [Compound F126]
pest or weed control at 100 ppm [2]: 80 to 100%
pest or weed control at 100 ppm [4]: 80 to 100%
pest or weed control at 100 ppm [5]: 80 to 100%

CCCO[C@@H]1[C@@H](Cc2ccccc2)CCC[C@H](NC(=O)c2nccc(OC)c2OC(=O)CCOC)C(=O)O[C@H]1C [Compound F198]
pest or weed control at 100 ppm [1]: 80 to 100%
pest or weed control at 100 ppm [2]: 80 to 100%
pest or weed control at 100 ppm [4]: 80 to 100%
pest or weed control at 100 ppm [5]: 80 to 100%

CCO[C@@H]1[C@@H](Cc2ccccc2)CCC[C@H](NC(=O)c2nccc(OC)c2OC(C)=O)C(=O)O[C@H]1C [Compound F87]
pest or weed control at 100 ppm [1]: 80 to 100%
pest or weed control at 100 ppm [2]: 80 to 100%
pest or weed control at 100 ppm [4]: 80 to 100%
pest or weed control at 100 ppm [5]: 80 to 100%
